According to PubChem BioAssay (NCI):
Values joined by “and” are separate entries in the source; they are usually repeats but may differ in a detail not shown here. Equal entries are not always repeated.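 Results reflect a 48-hour exposure of cells in 96-well plates to compound at five concentrations. Abbreviation: GI50, concentration required for 50% inhibition of growth. Definition used: TGI = concentration required for complete inhibition of growth.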

Columns and labels:
Assay in all cases: DTP human tumour cell line panel, 48 h
[1] = test system: DU-145 prostate
[2] = test system: TK-10 renal
[3] = test system: HL-60(TB) leukemia
[4] = test system: KM12 colon
[5] = test system: NCI-H460 lung
[6] = test system: SF-539 CNS
[7] = test system: LOX IMVI melanoma
[8] = test system: COLO 205 colon
[9] = test system: CAKI-1 renal
[10] = test system: HOP-92 NSCLC

| SMILES | GI50 [1] [µM] | TGI [1] | GI50 [2] [µM] | TGI [2] | GI50 [3] [µM] | TGI [3] | GI50 [4] [µM] | TGI [4] | GI50 [5] [µM] | TGI [5] [µM] | GI50 [6] [µM] | TGI [6] | GI50 [7] [µM] | TGI [7] | GI50 [8] [µM] | TGI [8] | GI50 [9] [µM] | TGI [9] [µM] | GI50 [10] [µM] | TGI [10] |
| --- | --- | --- | --- | --- | --- | --- | --- | --- | --- | --- | --- | --- | --- | --- | --- | --- | --- | --- | --- | --- |
| C[C@H]1COCCN1c1cc(C2(S(=O)(=O)C3CC3)CC2)nc(-c2ccc(NC(=S)NCCO)cc2)n1 | 0.0919 | > 100 µM | 0.0148 | 0.274 µM | 0.702 | 28.6 µM | 0.0494 | > 100 µM | 0.02 | > 100 | 0.0292 | 0.347 µM | 0.0306 | 12.3 µM | 0.0172 | 10.4 µM | 0.139 | 10.2 | < 0.01 | 0.0607 µM |
| O=C(c1ccccc1)c1c(C(F)(F)F)n([O-])c2cc(C(F)(F)F)ccc2[n+]1=O | 1.22 | 2.47 µM | 1.75 | 3.18 µM | 0.55 | 1.58 µM | 1.6 | 3.17 µM | 1.68 | 3.42 | 1.74 | 3.17 µM | 0.258 | 0.745 µM | 1.41 | 3.27 µM | 0.491 | 0.956 | 1.51 | 2.95 µM |
| Cc1c(Cl)cccc1NC(=O)/C=C/c1ccccc1 |  | > 100 µM |  | > 100 µM |  | > 100 µM |  | > 100 µM |  | > 100 |  | > 100 µM |  | > 100 µM |  | > 100 µM |  | 73.3 |  | > 100 µM |
| COc1ccc2c(c1OC)C(C(Cl)(Cl)Cl)N1CCc3cc4c(cc3C1=C2)OCO4 (centres undefined) |  | 84.7 µM |  | > 100 µM |  | 45.2 µM |  | 20.3 µM |  | 55.3 |  | > 100 µM |  | > 100 µM |  | 20.8 µM |  | > 100 |  | 84.7 µM |
| C[n+]1c2ccccc2nc2ccccc21 | 1.57 | 3.12 µM | 2.71 | 13 µM | 1.74 | > 16.1 µM | 2.93 | 12.2 µM | 2.33 | 11.2 | 1.68 | 4.76 µM | 0.819 | 2.38 µM | 0.375 | 1.39 µM | 2.09 | 6.42 | 1.5 | 4.71 µM |
| Cc1nc2ccccn2c1NC(=O)NNC(=S)Nc1ccc(F)cc1 | > 100 | > 100 µM | > 100 | > 100 µM | > 100 | > 100 µM | > 100 | > 100 µM | > 100 | > 100 | > 100 | > 100 µM | > 100 | > 100 µM | > 100 | > 100 µM | > 100 | > 100 | > 100 | > 100 µM |
| Cn1c(-c2ccccc2)c(/C=C/C2=[N+](C)c3ccccc3C2(C)C)c2ccccc21 | 1.87 | 12.7 µM | 1.35 | 11.5 µM | 0.254 | 0.565 µM | 0.429 | 1.94 µM | 0.58 | 8.24 | 2.59 | 14.2 µM | 0.527 | 3.25 µM | 1 | 2.47 µM | 1.81 | 5.08 | 0.616 | 4.64 µM |
| CCCCCCCC/C=C1\CCC(CN2CCOCC2)C1=O (centres undefined) |  | 17.9 µM |  | 7.42 µM |  | 14.8 µM |  | 12.4 µM |  | 39.4 |  | 14.7 µM |  | 9.94 µM |  | 17.3 µM |  | 23.8 |  | 33 µM |
| O=C(/C=C1\C(=O)N(Cc2ccccc2)c2ccccc21)c1ccc(OCCN2CCCCC2)cc1 | 2.26 | 5.05 µM | 1.58 | 2.97 µM | 1.71 | 4.39 µM | 5.9 | 20.8 µM | 3.57 | 11.9 | 2.07 | 4.14 µM | 1.71 | 3.14 µM | 1.77 | 3.27 µM | 1.78 | 4.02 | 1.36 | 2.77 µM |
| Cc1c(N)nc(C(CC(N)=O)NCC(N)C(N)=O)nc1C(=O)NC(C(=O)NC(C)C(O)C(C)C(=O)NC(C(=O)NCCc1nc(-c2nc(C(=O)NCCCNC(C)c3ccccc3)cs2)cs1)C(C)O)C(OC1OC(CO)C(O)C(O)C1OC1OC(CO)C(O)C(OC(N)=O)C1O)c1cnc[nH]1 (centres undefined) | 10.5 | 39.2 µM and 55 µM | > 100 | 50 µM and > 100 µM | 32 | 50 µM and > 100 µM | 44.1 | 50 µM and > 100 µM | 0.391 |  | 0.0376 | 0.476 µM and 0.681 µM | 0.479 | 2.3 µM and 10.3 µM | 32.6 | 50 µM and > 100 µM | 2 |  | 0.227 | 3.51 µM and 25.8 µM |
| Clc1ccc2nc(CI)c(CI)nc2c1 | 10.1 | 23.5 µM | 3 | 10.2 µM | 1.23 | 9.06 µM | 6.07 | 17.6 µM | 10.1 | 27.1 | 2.46 | 6.31 µM | 1.64 | 3.37 µM | 1.77 | 3.28 µM | 9.56 | 24.9 | 3 | 8.3 µM |
| COc1ccc(/C(C#N)=C/c2cc(OC)c(OC)c(OC)c2)cc1 | 40.1 | > 100 µM | 37.4 | > 100 µM | 13.2 | 56.5 µM | 12.7 | > 100 µM | 29.6 | > 100 | 16.1 | 58 µM | 22.2 | > 100 µM | 20.1 | 64.8 µM | 20.1 | > 100 |  |  |
| O=C(Nc1ccc(F)cc1)Nc1ccc(Br)c(C(F)(F)F)c1 | 3.27 | 13.4 µM | 2.33 | 7.43 µM | 1.87 | 5.19 µM | 1.96 | 7.92 µM | 2.53 | 10.4 | 2.58 | 8.43 µM | 2.51 | 7.39 µM | 1.72 | 3.27 µM |  |  | 1.63 | 5.24 µM |
